Laboratory results as given in PubChem BioAssay AID2060625 (Molecular Pharmacology Branch, DTP, NCI, 2025).

System: 186277-243-T-J2-PDC spheroids with HUVEC/MSC, viability
Test: Anticancer human tumor 186277-243-T-J2-PDC patient-derived colon adenocarcinoma cell line growth inhibition [CLK]
Conditions: for IC50: curve of first compound; for viability, T/C: stronger effect = lower value
In short: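 Patient-derived tumor cells grown as complex spheroids with HUVEC endothelial cells and mesenchymal stem cells, treated with drug combinations. Concentrations descend in half-log steps from near clinical Cmax, or from 10 microM if Cmax unknown.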

[1] = second compound 0.0316 µM, first compound 0.00949 µM
[2] = second compound 0.0316 µM, first compound 0.03 µM
[3] = second compound 0.0316 µM, first compound 0.0949 µM
[4] = second compound 0.0316 µM, first compound 0.3 µM
[5] = second compound 0.1 µM, first compound 0.00949 µM
[6] = second compound 0.1 µM, first compound 0.03 µM
[7] = second compound 0.1 µM, first compound 0.0949 µM
[8] = second compound 0.1 µM, first compound 0.3 µM
[9] = second compound 0.316 µM, first compound 0.00949 µM
[10] = second compound 0.316 µM, first compound 0.03 µM
[11] = second compound 0.316 µM, first compound 0.0949 µM
[12] = second compound 0.316 µM, first compound 0.3 µM
[13] = second compound 1 µM, first compound 0.00949 µM
[14] = second compound 1 µM, first compound 0.03 µM
[15] = second compound 1 µM, first compound 0.0949 µM
[16] = second compound 1 µM, first compound 0.3 µM
[17] = second compound 3.16 µM, first compound 0.00949 µM
[18] = second compound 3.16 µM, first compound 0.03 µM
[19] = second compound 3.16 µM, first compound 0.0949 µM
[20] = second compound 3.16 µM, first compound 0.3 µM
[21] = second compound 10 µM, first compound 0.00949 µM
[22] = second compound 10 µM, first compound 0.03 µM
[23] = second compound 10 µM, first compound 0.0949 µM
[24] = second compound 10 µM, first compound 0.3 µM
[25] = second compound 0.0316 µM, first compound 0.0316 µM
[26] = second compound 0.0316 µM, first compound 0.1 µM
[27] = second compound 0.0316 µM, first compound 0.316 µM
[28] = second compound 0.0316 µM, first compound 1 µM
[29] = second compound 0.0316 µM, first compound 3.16 µM
[30] = second compound 0.0316 µM, first compound 10 µM
[31] = second compound 0.1 µM, first compound 0.0316 µM
[32] = second compound 0.1 µM, first compound 0.1 µM
[33] = second compound 0.1 µM, first compound 0.316 µM
[34] = second compound 0.1 µM, first compound 1 µM
[35] = second compound 0.1 µM, first compound 3.16 µM
[36] = second compound 0.1 µM, first compound 10 µM
[37] = second compound 0.316 µM, first compound 0.0316 µM
[38] = second compound 0.316 µM, first compound 0.1 µM
[39] = second compound 0.316 µM, first compound 0.316 µM
[40] = second compound 0.316 µM, first compound 1 µM
[41] = second compound 0.316 µM, first compound 3.16 µM
[42] = second compound 0.316 µM, first compound 10 µM
[43] = second compound 1 µM, first compound 0.0316 µM
[44] = second compound 1 µM, first compound 0.1 µM
[45] = second compound 1 µM, first compound 0.316 µM
[46] = second compound 1 µM, first compound 1 µM
[47] = second compound 1 µM, first compound 3.16 µM
[48] = second compound 1 µM, first compound 10 µM
[49] = second compound 3.16 µM, first compound 0.0316 µM
[50] = second compound 3.16 µM, first compound 0.1 µM
[51] = second compound 3.16 µM, first compound 0.316 µM
[52] = second compound 3.16 µM, first compound 1 µM
[53] = second compound 3.16 µM, first compound 3.16 µM
[54] = second compound 3.16 µM, first compound 10 µM
[55] = second compound 10 µM, first compound 0.0316 µM
[56] = second compound 10 µM, first compound 0.1 µM
[57] = second compound 10 µM, first compound 0.316 µM
[58] = second compound 10 µM, first compound 1 µM
[59] = second compound 10 µM, first compound 3.16 µM
[60] = second compound 10 µM, first compound 10 µM
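Further: compound exposure lasted seven days before readout.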
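Wherever viability, T/C is given: 100% = DMSO vehicle control wells.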

Structure (SMILES): C=CC(=O)Nc1cc(Nc2nccc(-c3cn(C)c4ccccc34)n2)c(OC)cc1N(C)CCN(C)C + CN1CCN(c2cc(C(=O)Nc3cc4cc(-c5cnn(C)c5)ccc4cn3)ccn2)CC1
- IC50 (second compound 0.0316 µM): > 0.3 µM
- IC50 (second compound 0.1 µM): > 0.3 µM
- IC50 (second compound 0.316 µM): < 0.000949 µM
- IC50 (second compound 1 µM): < 0.000949 µM
- IC50 (second compound 3.16 µM): < 0.000949 µM
- IC50 (second compound 10 µM): < 0.000949 µM
- viability, T/C (second compound 0.0316 µM, first compound 0.000949 µM): 92.1%
- viability, T/C (second compound 0.0316 µM, first compound 0.003 µM): 92.6%
- viability, T/C [1]: 90.9%
- viability, T/C [2]: 78.2%
- viability, T/C [3]: 83.8%
- viability, T/C [4]: 82.2%
- viability, T/C (second compound 0.1 µM, first compound 0.000949 µM): 87%
- viability, T/C (second compound 0.1 µM, first compound 0.003 µM): 75.6%
- viability, T/C [5]: 86.8%
- viability, T/C [6]: 92.3%
- viability, T/C [7]: 70.9%
- viability, T/C [8]: 64%
- viability, T/C (second compound 0.316 µM, first compound 0.000949 µM): 25.9%
- viability, T/C (second compound 0.316 µM, first compound 0.003 µM): 26.1%
- viability, T/C [9]: 25.2%
- viability, T/C [10]: 21.2%
- viability, T/C [11]: 20.8%
- viability, T/C [12]: 14%
- viability, T/C (second compound 1 µM, first compound 0.000949 µM): 0.45%
- viability, T/C (second compound 1 µM, first compound 0.003 µM): 0.44%
- viability, T/C [13]: 1.59%
- viability, T/C [14]: 0.36%
- viability, T/C [15]: 0.85%
- viability, T/C [16]: 0.32%
- viability, T/C (second compound 3.16 µM, first compound 0.000949 µM): 1.64%
- viability, T/C (second compound 3.16 µM, first compound 0.003 µM): 1.27%
- viability, T/C [17]: 2.11%
- viability, T/C [18]: 0.98%
- viability, T/C [19]: 0.87%
- viability, T/C [20]: 0.74%
- viability, T/C (second compound 10 µM, first compound 0.000949 µM): 0.65%
- viability, T/C (second compound 10 µM, first compound 0.003 µM): 0.71%
- viability, T/C [21]: 0.97%
- viability, T/C [22]: 0.86%
- viability, T/C [23]: 0.61%
- viability, T/C [24]: 1.03%

Structure (SMILES): CC1(C)CCC(CN2CCN(c3ccc(C(=O)NS(=O)(=O)c4ccc(NCC5CCOCC5)c([N+](=O)[O-])c4)c(Oc4cnc5[nH]ccc5c4)c3)CC2)=C(c2ccc(Cl)cc2)C1 + CN1CCN(c2cc(C(=O)Nc3cc4cc(-c5cnn(C)c5)ccc4cn3)ccn2)CC1
- IC50 (second compound 0.0316 µM): 5.78 µM
- IC50 (second compound 0.1 µM): 5.35 µM
- IC50 (second compound 0.316 µM): < 0.0316 µM
- IC50 (second compound 1 µM): < 0.0316 µM
- IC50 (second compound 3.16 µM): < 0.0316 µM
- IC50 (second compound 10 µM): < 0.0316 µM
- viability, T/C [25]: 92.5%
- viability, T/C [26]: 93.2%
- viability, T/C [27]: 94.6%
- viability, T/C [28]: 92.1%
- viability, T/C [29]: 104%
- viability, T/C [30]: 8.6%
- viability, T/C [31]: 82.4%
- viability, T/C [32]: 76.3%
- viability, T/C [33]: 87.6%
- viability, T/C [34]: 94.5%
- viability, T/C [35]: 101%
- viability, T/C [36]: 4.42%
- viability, T/C [37]: 30.1%
- viability, T/C [38]: 32.8%
- viability, T/C [39]: 23.6%
- viability, T/C [40]: 30.9%
- viability, T/C [41]: 25.3%
- viability, T/C [42]: 2.48%
- viability, T/C [43]: 0.62%
- viability, T/C [44]: 0.92%
- viability, T/C [45]: 0.31%
- viability, T/C [46]: 0.75%
- viability, T/C [47]: 1.8%
- viability, T/C [48]: 0.48%
- viability, T/C [49]: 1.95%
- viability, T/C [50]: 0.91%
- viability, T/C [51]: 1.71%
- viability, T/C [52]: 1.07%
- viability, T/C [53]: 1.36%
- viability, T/C [54]: 0.41%
- viability, T/C [55]: 0.95%
- viability, T/C [56]: 1.04%
- viability, T/C [57]: 1.34%
- viability, T/C [58]: 0.91%
- viability, T/C [59]: 0.55%
- viability, T/C [60]: 0.2%

Structure (SMILES): NC(=O)C(=Cn1cnc(-c2cc(C(F)(F)F)cc(C(F)(F)F)c2)n1)c1cncnc1 + CN1CCN(c2cc(C(=O)Nc3cc4cc(-c5cnn(C)c5)ccc4cn3)ccn2)CC1
- IC50 (second compound 0.0316 µM): 0.127 µM
- IC50 (second compound 0.1 µM): 0.039 µM
- IC50 (second compound 0.316 µM): < 0.00949 µM
- IC50 (second compound 1 µM): < 0.00949 µM
- IC50 (second compound 3.16 µM): < 0.00949 µM
- IC50 (second compound 10 µM): < 0.00949 µM
- viability, T/C [1]: 98.3%
- viability, T/C [2]: 83.4%
- viability, T/C [3]: 65.4%
- viability, T/C [4]: 5.69%
- viability, T/C (second compound 0.0316 µM, first compound 0.949 µM): 1.85%
- viability, T/C (second compound 0.0316 µM, first compound 3 µM): 2.91%
- viability, T/C [5]: 61.6%
- viability, T/C [6]: 60.9%
- viability, T/C [7]: 13.1%
- viability, T/C [8]: 1.94%
- viability, T/C (second compound 0.1 µM, first compound 0.949 µM): 0.71%
- viability, T/C (second compound 0.1 µM, first compound 3 µM): 1.36%
- viability, T/C [9]: 9.76%
- viability, T/C [10]: 4.11%
- viability, T/C [11]: 0.34%
- viability, T/C [12]: 0.6%
- viability, T/C (second compound 0.316 µM, first compound 0.949 µM): 0.58%
- viability, T/C (second compound 0.316 µM, first compound 3 µM): 0.92%
- viability, T/C [13]: 1%
- viability, T/C [14]: 1.1%
- viability, T/C [15]: 0.81%
- viability, T/C [16]: 0.47%
- viability, T/C (second compound 1 µM, first compound 0.949 µM): 0.34%
- viability, T/C (second compound 1 µM, first compound 3 µM): 3.14%
- viability, T/C [17]: 1.66%
- viability, T/C [18]: 1.29%
- viability, T/C [19]: 1.77%
- viability, T/C [20]: 1.67%
- viability, T/C (second compound 3.16 µM, first compound 0.949 µM): 1.12%
- viability, T/C (second compound 3.16 µM, first compound 3 µM): 1.92%
- viability, T/C [21]: 1.29%
- viability, T/C [22]: 1.77%
- viability, T/C [23]: 1.3%
- viability, T/C [24]: 0.74%
- viability, T/C (second compound 10 µM, first compound 0.949 µM): 1.71%
- viability, T/C (second compound 10 µM, first compound 3 µM): 1.04%

Structure (SMILES): Nc1ccccc1NC(=O)c1ccc(CNC(=O)OCc2cccnc2)cc1 + CN1CCN(c2cc(C(=O)Nc3cc4cc(-c5cnn(C)c5)ccc4cn3)ccn2)CC1
- IC50 (second compound 0.0316 µM): 3.73 µM
- IC50 (second compound 0.1 µM): 1.55 µM
- IC50 (second compound 0.316 µM): < 0.0316 µM
- IC50 (second compound 1 µM): < 0.0316 µM
- IC50 (second compound 3.16 µM): < 0.0316 µM
- IC50 (second compound 10 µM): < 0.0316 µM
- viability, T/C [25]: 110%
- viability, T/C [26]: 90.6%
- viability, T/C [27]: 92.7%
- viability, T/C [28]: 101%
- viability, T/C [29]: 57%
- viability, T/C [30]: 7.85%
- viability, T/C [31]: 84.4%
- viability, T/C [32]: 78%
- viability, T/C [33]: 77.3%
- viability, T/C [34]: 65.3%
- viability, T/C [35]: 25.8%
- viability, T/C [36]: 2.96%
- viability, T/C [37]: 22.3%
- viability, T/C [38]: 19.1%
- viability, T/C [39]: 15.2%
- viability, T/C [40]: 15.9%
- viability, T/C [41]: 2.42%
- viability, T/C [42]: 1.03%
- viability, T/C [43]: 1.13%
- viability, T/C [44]: 1.4%
- viability, T/C [45]: 0.97%
- viability, T/C [46]: 1.21%
- viability, T/C [47]: 1.83%
- viability, T/C [48]: 0.7%
- viability, T/C [49]: 1.82%
- viability, T/C [50]: 1.26%
- viability, T/C [51]: 0.87%
- viability, T/C [52]: 2.2%
- viability, T/C [53]: 1.61%
- viability, T/C [54]: 0.94%
- viability, T/C [55]: 1.7%
- viability, T/C [56]: 0.57%
- viability, T/C [57]: 0.67%
- viability, T/C [58]: 2.12%
- viability, T/C [59]: 2.19%
- viability, T/C [60]: 0.39%
